Source: US5342922A, “Inhibitors of retroviral protease” (Washington University, priority 1989, dated 1994)
Like-named read-outs stand apart in the source and are kept apart here. Numbered stars: 1 amine (or outer) side, 2 acyl side, 3 side chain; on linkers, the order of the positions; unused ones are H or OH. Square brackets hold non-standard residues; d marks the D form. Peptide text beside a SMILES is read from it. LeuΨ(CH2N)Pro = CC(C)C[C@@H](CN1CCC[C@H]1C(=O)[*:2])N[*:1]; X1 = O=C([C@@H]1CCCN1C[C@H](Cc1ccc(O)cc1)N[*:1])[*:2]; X2 = O=C([C@@H]1CCCN1C[C@H](Cc1ccccc1)N[*:1])[*:2]; X3 = CCCC[C@@H](CN(C)[C@@H](CCCC)C(=O)[*:2])N[*:1]; X4 = C[C@@H](CN1CCC[C@H]1C(=O)[*:2])N[*:1]

Legend:
HIV protease [1] = biological target: T1, HIV protease (Human immunodeficiency virus type 1 group M subtype B, UniProt P04585); test: HIV protease assay, inhibition of cleavage of acetyl-Thr-Ile-Met-Met-Gln-Arg-NH2 (HPLC); format: biochemical, HIV-1
HIV protease [2] = biological target: T1, HIV protease; test: HIV protease assay, substrate cleavage (relative hydrolysis rates, Km, Vmax); format: biochemical, HIV-1; details: for Relative Rate: percent of standard substrate concentration cleaved in twenty minutes, relative to Ac-Thr-Ile-Met-Met-Gln-Arg-NH2 = 1.00
HIV protease [3] = biological target: T1, HIV protease; details: Darke et al. 1988, cited from earlier work
[4] = system: CD4+ human lymphocyte cells (H9 cells); details: preliminary
[5] = affinities not fully characterized, classified by comparative inhibition studies, read-out: KI (affinity category)
[6] = in vitro inhibition of HIV protease, pH 6.5, 25°, read-out: KI

| Molecule | Ki (HIV protease [1]; [5]) | further results |
| --- | --- | --- |
| CCCC[C@@H](CN[C@@H](Cc1ccccc1)C(=O)N[C@@H](CCC(N)=O)C(=O)N[C@@H](CCCNC(=N)N)C(N)=O)NC(=O)[C@@H](NC(=O)[C@@H](NC(C)=O)[C@@H](C)O)[C@@H](C)CC [Ac--Thr--lle--Nle-.PSI.[CH2 NH]--Phe--Gln--Arg--NH2] | < 1 µM |  |
| Ac-TIMMQR-NH2 [Ac--Thr--Ile--Met--Met--Gln--Arg--NH2] |  | Relative Rate (HIV protease [2]): 1.00; Vmax (HIV protease [2]; substrate of HIV protease): 725 nmol/min/mg |
| QNY-PIV |  | cleavage by HIV protease (HIV protease [3]): failed to be cleaved |
| CC[C@H](C)[C@H](NC(=O)[C@H](CCC(N)=O)NC(=O)[C@@H]1CCCN1C[C@H](Cc1ccccc1)NC(=O)[C@H](CC(N)=O)NC(=O)[C@H](Cc1ccccc1)NC(=O)[C@H](CO)NC(C)=O)C(N)=O [Ac--Ser--Phe--Asn--Phe-.PSI.[CH2 N]--Pro--Gln--Ile--NH2] (Ac-SFN[X2]QI-NH2) | 1 to 100 µM |  |
| CC[C@H](C)[C@H](NC(=O)[C@@H]1CCCN1C[C@H](Cc1ccc(O)cc1)NC(=O)[C@H](CC(N)=O)NC(=O)[C@H](CCC(N)=O)NC(C)=O)C(=O)N[C@H](C(N)=O)C(C)C [Ac--Gln--Asn--Tyr-.PSI.[CH2 N]--Pro--Ile--Val--NH2] (Ac-QN[X1]IV-NH2) |  | Ki (HIV protease [1]; [6]): 17.2 µM; toxicity as measured by cell count [4]: no apparent toxicity |
| CCCC[C@@H](CN[C@@H](CCCC)C(=O)N[C@@H](CCC(N)=O)C(=O)N[C@H](CCCNC(=N)N)C(N)=O)NC(=O)[C@@H](NC(=O)[C@@H](NC(C)=O)[C@@H](C)O)[C@@H](C)CC [Ac--Thr--Ile--Nle-.PSI.[CH2 NH]--Nle--Gln--D--Arg--NH2] | 1 to 100 µM |  |
| CC[C@H](C)[C@H](NC(=O)[C@H](CCC(N)=O)NC(=O)[C@@H]1CCCN1C[C@H](Cc1ccccc1)NC(=O)[C@H](CC(N)=O)NC(=O)[C@H](Cc1ccccc1)NC(C)=O)C(N)=O [Ac--Phe--Asn--Phe-.PSI.[CH2 N]--Pro--Gln--Ile--NH2] (Ac-FN[X2]QI-NH2) | 1 to 100 µM |  |
| CCCC[C@@H](CN[C@@H](CCCC)C(=O)N[C@H](C(=O)N[C@H](C(N)=O)[C@@H](C)O)[C@@H](C)CC)NC(=O)[C@H](CCC(N)=O)NC(=O)[C@H](CCCNC(=N)N)NC(C)=O [Ac--Arg--Gln--Nle-.PSI.[CH2 NH]--Nle--Ile--Thr--NH2] | 1 to 100 µM |  |
| CC[C@H](C)[C@H](NC(=O)[C@@H](NC(C)=O)[C@@H](C)O)C(=O)N[C@H](CN[C@@H](CC(C)C)C(=O)N[C@@H](CCC(N)=O)C(=O)N[C@@H](CCCNC(=N)N)C(N)=O)CC(C)C [Ac--Thr--lle--Leu-.PSI.[CH2 NH]--Leu--Gln--Arg--NH2] |  | Ki (HIV protease [1]; [6]): 0.734 µM |
| CC(C)C[C@@H](CN1CCC[C@H]1C(=O)N[C@H](C(=O)N[C@@H](C)C(=O)O)C(C)C)NC(=O)[C@H](CC(N)=O)NC(=O)[C@H](CC(C)C)NC(=O)[C@@H](N)CO [H2 N--Ser--Leu--Asn--Leu-.PSI.[CH2 N]--Pro--Val--Ala--OH] (H-SLN[LeuΨ(CH2N)Pro]VA-OH) |  | Ki (HIV protease [1]; [6]): 13.1 µM |
| CCCC[C@@H](CN[C@@H](CCCC)C(=O)N[C@@H](CCC(N)=O)C(=O)N[C@@H](CCCNC(=N)N)C(N)=O)NC(=O)[C@@H](NC(=O)[C@H](NC(C)=O)[C@H](C)O)[C@@H](C)CC [Ac--D--Thr--Ile--Nle-.PSI.[CH2 NH]--Nle--Gln--Arg--NH2] | 1 to 100 µM |  |
| CC[C@H](C)[C@H](NC(=O)[C@@H]1CCCN1C[C@H](Cc1ccccc1)NC(=O)[C@H](CC(N)=O)NC(=O)[C@H](CC(C)C)NC(=O)[C@@H](N)[C@@H](C)O)C(=O)N[C@@H](CO)C(=O)O [H2 N--Thr--Leu--Asn--Phe-.PSI.[CH2 N]--Pro--Ile--Ser--OH] (H-TLN[X2]IS-OH) | 1 to 100 µM |  |
| CCCC[C@@H](CN[C@@H](CC(C)C)C(=O)N[C@@H](CCC(N)=O)C(=O)N[C@@H](CCCNC(=N)N)C(N)=O)NC(=O)[C@@H](NC(=O)[C@@H](NC(C)=O)[C@@H](C)O)[C@@H](C)CC [Ac--Thr--lle--Nle-.PSI.[CH2 NH]--Leu--Gln--Arg--NH2] | < 1 µM |  |
| CCCC[C@@H](CN[C@@H](CCCC)C(=O)N[C@@H](CCC(N)=O)C(=O)N[C@@H](CCCNC(=N)N)C(N)=O)NC(=O)[C@@H](NC(=O)[C@@H](NC(C)=O)[C@@H](C)O)[C@@H](C)CC [Ac--Thr--Ile--Nle-.PSI.[CH2 NH]--Nle--Gln--Arg--NH2] |  | toxicity as measured by cell count [4]: no apparent toxicity |
| CC(=O)NCC(=O)N[C@@H](CC(N)=O)C(=O)N[C@@H](Cc1ccc(O)cc1)CN1CCC[C@H]1C(=O)N[C@H](C(=O)N[C@@H](CCC(N)=O)C(N)=O)C(C)C [Ac--Gly--Asn--Tyr-.PSI.[CH2 N]--Pro--Val--Gln--NH2] (Ac-GN[X1]VQ-NH2) | 1 to 100 µM |  |
| SQNY-PI |  | cleavage by HIV protease (HIV protease [3]): failed to be cleaved |
| CCCC[C@@H](CN[C@@H](CCCC)C(=O)N[C@@H](CCC(N)=O)C(N)=O)NC(=O)[C@@H](NC(=O)[C@@H](NC(C)=O)[C@@H](C)O)[C@@H](C)CC [Ac--Thr--Ile--Nle-.PSI.[CH2 NH]--Nle--Gln--NH2] | 1 to 100 µM |  |
| CC(=O)N[C@@H](CC(C)C)C(=O)N[C@@H](C)C(=O)N[C@@H](C)CN1CCC[C@H]1C(=O)N[C@@H](CCC(N)=O)C(=O)N[C@@H](Cc1ccccc1)C(N)=O [Ac--Leu--Ala--Ala-.PSI.[CH2 N]--Pro--Gln--Phe--NH2] (Ac-LA[X4]QF-NH2) | > 100 µM |  |
| CCCC[C@@H](CN[C@@H](CCCC)C(=O)N[C@@H](CCC(N)=O)C(=O)N[C@@H](CCC)C(N)=O)NC(=O)[C@@H](NC(=O)[C@@H](NC(C)=O)[C@@H](C)O)[C@@H](C)CC [Ac--Thr--Ile--Nle-.PSI.[CH2 NH]--Nle--Gln--Nva--NH2] | 1 to 100 µM |  |
| CC[C@H](C)[C@H](NC(=O)[C@@H]1CCCN1C[C@H](Cc1ccccc1)NC(=O)[C@H](CC(N)=O)NC(=O)[C@H](CC(C)C)NC(C)=O)C(=O)N[C@@H](CO)C(=O)O [Ac--Leu--Asn--Phe-.psi.[CH2 N]--Pro--Ile--Ser--OH] (Ac-LN[X2]IS-OH) | 1 to 100 µM |  |
| Aba--Thr--Ile--Nle--PnF--Gln--Arg--NH2 |  | Relative Rate (HIV protease [2]): 1.46 |
| CCCC[C@@H](CN[C@@H](CC1CCCCC1)C(=O)N[C@@H](CCC(N)=O)C(=O)N[C@@H](CCCNC(=N)N)C(N)=O)NC(=O)[C@@H](NC(=O)[C@@H](NC(C)=O)[C@@H](C)O)[C@@H](C)CC [Ac--Thr--Ile--Nle-.PSI.[CH2 NH]--Cha--Gln--Arg--NH2] | < 1 µM |  |
| SQNY-PIV |  | cleavage rate relative to the octapeptide (HIV protease [3]; of the rate of VSQNYPIV): 90% |
| acetyl-QNY-PIV |  | cleavage by HIV protease (HIV protease [3]): failed to be cleaved |
| CCCC[C@@H](CN[C@H](C(=O)N[C@@H](CCC(N)=O)C(=O)N[C@@H](CCCNC(=N)N)C(N)=O)[C@@H](C)CC)NC(=O)[C@@H](NC(=O)[C@@H](NC(C)=O)[C@@H](C)O)[C@@H](C)CC [Ac--Thr--Ile--Nle-.PSI.[CH2 NH]--Ile--Gln--Arg--NH2] | < 1 µM |  |
| VSQNYPIV |  | Km (HIV protease [3]): 2500 µM |
| Ac-QNYPIV-NH2 [Ac--Gln--Asn--Tyr--Pro--Ile--Val--NH2] |  | Relative Rate (HIV protease [2]): 0.04 |
| CCCC[C@@H](CN(C)[C@@H](CCCC)C(=O)N[C@@H](CCC(N)=O)C(=O)N[C@@H](CCCNC(=N)N)C(N)=O)NC(=O)[C@@H](NC(=O)[C@@H](NC(C)=O)[C@@H](C)O)[C@@H](C)CC [Ac--Thr--Ile--Nle-.psi.[CH2 NH]--MeNle--Gln--Arg--NH2] (Ac-TI[X3]QR-NH2) | > 100 µM |  |
| CCCC[C@@H](CNC1(C(=O)N[C@@H](CCC(N)=O)C(=O)N[C@@H](CCCNC(=N)N)C(N)=O)CCCC1)NC(=O)[C@@H](NC(=O)[C@@H](NC(C)=O)[C@@H](C)O)[C@@H](C)CC [Ac--Thr--lle--Nle-.PSI.[CH2 NH]--Cle--Gln--Arg--NH2] | > 100 µM |  |
| Ac--Thr--Ile--Nle--Hle--Gln--Arg--NH2 |  | Relative Rate (HIV protease [2]): 0.95 |
